Measurements: PubChem BioAssay AID248 (DTP/NCI, 2004)
Inconclusive results and toxic doses are left out. Cut-off read from the data, not from the text of the source: active = T/C of 150% or more; inactive = T/C below 125%.

Tested on: L1210 leukemia ip in BDF1 mice, survival T/C
Experiment: NCI In Vivo Anticancer Drug Screen. Data for tumor model L1210 Leukemia (intraperitoneal) in B6D2F1 (BDF1) mice
Conditions: endpoint: mean survival time, higher = longer survival
Procedure, shortened: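 Ratio derived from survival: compound-dosed mice over vehicle-dosed mice, all bearing a transplantable tumor.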

Measured: T/C

COc1cc(CC2COC(=O)C2Cc2ccc(OC3OC(CO)C(O)C(O)C3O)c(OC)c2)ccc1O (centres undefined)
inactive: dose: 25.0 mg/kg/injection, schedule: Q04DX002 (ip), vehicle: saline 111 % of control | dose: 50.0 mg/kg/injection, schedule: Q04DX002 (ip), vehicle: saline 104 % of control | dose: 100.0 mg/kg/injection, schedule: Q04DX002 (ip), vehicle: saline 107 % of control

CN(Cc1ccccc1)C(=O)c1cccc([N+](=O)[O-])c1
inactive: dose: 100.0 mg/kg/injection, schedule: Q01DX009 (ip), vehicle: Klucel (hydroxypropylcellulose) (HPC) 98 % of control | dose: 200.0 mg/kg/injection, schedule: Q01DX009 (ip), vehicle: Klucel (hydroxypropylcellulose) (HPC) 100 % of control | dose: 400.0 mg/kg/injection, schedule: Q01DX009 (ip), vehicle: Klucel (hydroxypropylcellulose) (HPC) 95 % of control

CCOC(=N)c1ccc(P(=O)(O)O)cc1
inactive: dose: 75.0 mg/kg/injection, schedule: Q01DX001 (ip), vehicle: saline 97 % of control | dose: 150.0 mg/kg/injection, schedule: Q01DX001 (ip), vehicle: saline 96 % of control | dose: 300.0 mg/kg/injection, schedule: Q01DX001 (ip), vehicle: saline 102 % of control
